The data set in a line: Solubility determination in water, HCl 0.1 M and organic solvents (shaken suspensions, HPLC assay of the supernatant). The format is physicochemical. The following applies: 25°C, shaken 24h, 1440 min. The procedure: For this purpose, solubility determination at RT of FI, FII and FV in water, HCl 0.1 M and some organic solvents has been carried out as described in the experimental section.
Suspensions in different solvents, ranging in concentration from 20 mg/mL to 400 mg/mL, depending on the solubility, were shaken with thermomixer at 25°C, […] for 24h. An aliquot was taken, centrifuged for 5 minutes at 13000 rpm, the supernatant was transferred in HPLC vials, opportunely diluted and assayed. For aqueous solvent the supernatant was further filtered with a 0.2 µm PVDF filter and centrifuged for 5 minutes at 8000 rpm.
Solubility data (mg/mL) obtained are gathered in Table 2. Table 2: solubility
HPLC-DAD: HP 1050 separation module controlled by HP Chem-station. Method:
Standard and calibration: automatic three point calibration (0.5 mg/mL, 1.0 mg/mL, 1.5 mg/mL), including the zero, using HP Chem-station program.

Where [1] appears, read: solvent H2O, supernatant filtered 0.2 µm PVDF.
Setting [2] is: solvent HCl 0.1M, supernatant filtered 0.2 µm PVDF.

By Solubility is commonly meant the dissolved amount per volume that the medium holds. Low values mean little dissolved substance, high ones much dissolved substance.

Structures are written as SMILES. Structures can show the parent of a compound that is named as a salt.

On to `COC(=O)C1=C(C)NC(C)=C(C(=O)OC(C)(C)CN(C)CCC(c2ccccc2)c2ccccc2)C1c1cccc([N+](=O)[O-])c1` (single isomer, unassigned) [FI, Lercanidipine.HCl Form I], for which the Solubility turned out to be 13800 µg/mL (solvent ACN); 28200 µg/mL (solvent EtOH); 1600 µg/mL under setting [1]; 200 µg/mL under setting [2]; 263900 µg/mL (solvent MeOH); 9400 µg/mL (solvent acetone).

`COC(=O)C1=C(C)NC(C)=C(C(=O)OC(C)(C)CN(C)CCC(c2ccccc2)c2ccccc2)C1c1cccc([N+](=O)[O-])c1` (single isomer, unassigned) [FII, Lercanidipine.HCl Form II]: the Solubility was 4800 µg/mL (solvent ACN); 10500 µg/mL (solvent EtOH); 300 µg/mL under setting [1]; 9 µg/mL under setting [2]; 83900 µg/mL (solvent MeOH); 2700 µg/mL (solvent acetone).

Turning to `COC(=O)C1=C(C)NC(C)=C(C(=O)OC(C)(C)CN(C)CCC(c2ccccc2)c2ccccc2)C1c1cccc([N+](=O)[O-])c1` (single isomer, unassigned) [FV, Lercanidipine.HCl Form V], the Solubility worked out at 26100 µg/mL (solvent ACN); 46720 µg/mL (solvent EtOH); 960 µg/mL under setting [1]; 70 µg/mL under setting [2]; 221900 µg/mL (solvent MeOH); 18500 µg/mL (solvent acetone).

The record behind these values is patent EP2303842B1, “A process for producing lercanidipine.HCl form V” (Recordati Ireland Limited, priority 2008, dated 2010).
